Assay results taken from PubChem BioAssay AID248 (DTP/NCI, 2004).
Several values for one entry are separate records, joined by “and”; a condition that tells them apart may be missing. Equal entries are not always repeated. Toxic doses and inconclusive results are not listed. No stated cut-off is given here; in the data, active means T/C of 150% or more; inactive means T/C below 125%.

Tested on: L1210 leukemia ip in BDF1 mice, survival T/C
Experiment: NCI In Vivo Anticancer Drug Screen. Data for tumor model L1210 Leukemia (intraperitoneal) in B6D2F1 (BDF1) mice
Conditions: endpoint: mean survival time, higher = longer survival
Method in brief: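 Each compound was tested against a transplantable tumor grown in mice. The endpoint was survival, with treated animals benchmarked against vehicle controls as a simple ratio.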

[1] = dose: 100.0 mg/kg/injection, schedule: Q01DX009 (ip), vehicle: saline with Tween-80
[2] = dose: 100.0 mg/kg/injection, schedule: Q04DX003 (ip), vehicle: saline with Tween-80
[3] = dose: 200.0 mg/kg/injection, schedule: Q01DX009 (ip), vehicle: saline with Tween-80
[4] = dose: 200.0 mg/kg/injection, schedule: Q04DX003 (ip), vehicle: saline with Tween-80
[5] = dose: 400.0 mg/kg/injection, schedule: Q01DX009 (ip), vehicle: saline with Tween-80
[6] = dose: 400.0 mg/kg/injection, schedule: Q04DX003 (ip), vehicle: saline with Tween-80
[7] = dose: 100.0 mg/kg/injection, schedule: Q01DX001 (ip), vehicle: saline
[8] = dose: 200.0 mg/kg/injection, schedule: Q01DX001 (ip), vehicle: saline
[9] = dose: 400.0 mg/kg/injection, schedule: Q01DX001 (ip), vehicle: saline
[10] = dose: 100.0 mg/kg/injection, schedule: Q04DX003 (ip), vehicle: other
[11] = dose: 100.0 mg/kg/injection, schedule: Q01DX001 (ip), vehicle: Klucel (hydroxypropylcellulose) (HPC)
[12] = dose: 200.0 mg/kg/injection, schedule: Q01DX001 (ip), vehicle: Klucel (hydroxypropylcellulose) (HPC)
[13] = dose: 400.0 mg/kg/injection, schedule: Q01DX001 (ip), vehicle: Klucel (hydroxypropylcellulose) (HPC)
[14] = dose: 100.0 mg/kg/injection, schedule: Q01DX001 (ip), vehicle: carboxymethylcellulose (CMC)
[15] = dose: 200.0 mg/kg/injection, schedule: Q01DX001 (ip), vehicle: carboxymethylcellulose (CMC)
[16] = dose: 400.0 mg/kg/injection, schedule: Q01DX001 (ip), vehicle: carboxymethylcellulose (CMC)
[17] = dose: 50.0 mg/kg/injection, schedule: Q01DX001 (ip), vehicle: carboxymethylcellulose (CMC)
[18] = dose: 50.0 mg/kg/injection, schedule: Q01DX009 (ip), vehicle: Klucel (hydroxypropylcellulose) (HPC)
[19] = dose: 100.0 mg/kg/injection, schedule: Q01DX009 (ip), vehicle: Klucel (hydroxypropylcellulose) (HPC)
[20] = dose: 400.0 mg/kg/injection, schedule: Q01DX009 (ip), vehicle: Klucel (hydroxypropylcellulose) (HPC)

Measured: T/C

CC(=O)Nc1ccc(NC(=O)c2ccc(Cl)cc2)cc1
inactive: dose: 50.0 mg/kg/injection, schedule: Q01DX001 (ip), vehicle: saline with Tween-80 95 % of control | dose: 100.0 mg/kg/injection, schedule: Q01DX001 (ip), vehicle: saline with Tween-80 95 % of control | [1] 97 % of control and 87 % of control | dose: 100.0 mg/kg/injection, schedule: Q04DX002 (ip), vehicle: saline with Tween-80 90 % of control and 91 % of control | [2] 92 % of control | dose: 200.0 mg/kg/injection, schedule: Q01DX001 (ip), vehicle: saline with Tween-80 90 % of control | [3] 95 % of control and 97 % of control | dose: 200.0 mg/kg/injection, schedule: Q04DX002 (ip), vehicle: saline with Tween-80 93 % of control and 97 % of control | [4] 89 % of control | dose: 400.0 mg/kg/injection, schedule: Q01DX001 (ip), vehicle: saline with Tween-80 87 % of control | [5] 97 % of control and 90 % of control | dose: 400.0 mg/kg/injection, schedule: Q04DX002 (ip), vehicle: saline with Tween-80 90 % of control and 92 % of control | [6] 87 % of control

CC1(C)NCC(=O)N1C(Cc1ccccc1)C(=O)O (configuration not stated)
inactive: [7] 100 % of control | [8] 97 % of control | [9] 100 % of control

CSc1ncnc2c1ncn2N(CCCl)C(C)=O
inactive: dose: 25.0 mg/kg/injection, schedule: Q01DX001 (ip), vehicle: other 96 % of control | dose: 25.0 mg/kg/injection, schedule: Q01DX009 (ip), vehicle: other 101 % of control | dose: 25.0 mg/kg/injection, schedule: Q04DX003 (ip), vehicle: other 100 % of control | dose: 50.0 mg/kg/injection, schedule: Q01DX001 (ip), vehicle: other 98 % of control | dose: 50.0 mg/kg/injection, schedule: Q01DX009 (ip), vehicle: other 105 % of control | dose: 50.0 mg/kg/injection, schedule: Q04DX003 (ip), vehicle: other 103 % of control | dose: 100.0 mg/kg/injection, schedule: Q01DX001 (ip), vehicle: other 96 % of control and 105 % of control | dose: 100.0 mg/kg/injection, schedule: Q01DX009 (ip), vehicle: other 97 % of control | [10] 102 % of control

O=C(Nc1ccccc1)C(=O)c1ccccc1
inactive: [11] 98 % of control | [12] 93 % of control | [13] 106 % of control

COC1OC(COS(C)(=O)=O)C(OS(C)(=O)=O)C(OS(C)(=O)=O)C1OS(C)(=O)=O (configuration not stated)
inactive: [2] 91 % of control and 100 % of control | [4] 93 % of control and 91 % of control | [6] 88 % of control and 94 % of control

COc1cc2c(c(OC)c1OC)-c1ccc(OC)c(=O)cc1C(NC(=S)Nc1ccccc1)CC2 (configuration not stated)
inactive: dose: 62.5 mg/kg/injection, schedule: Q01DX009 (ip), vehicle: other 104 % of control | dose: 125.0 mg/kg/injection, schedule: Q01DX009 (ip), vehicle: other 98 % of control | dose: 250.0 mg/kg/injection, schedule: Q01DX009 (ip), vehicle: other 103 % of control

CC1OC(OC2C(O)C(O)C(O)C(O)C2O)C(N)CC1N=C(N)C(=O)O (configuration not stated)
inactive: [14] 90 % of control | [15] 96 % of control | [16] 100 % of control

CSc1ccc(NC(=O)C(F)(F)F)cc1
inactive: [17] 97 % of control | [14] 92 % of control | [15] 97 % of control | [16] 95 % of control

CCCCC1C(=O)N=C2C=CC=CN2C1=O (configuration not stated)
inactive: dose: 25.0 mg/kg/injection, schedule: Q01DX009 (ip), vehicle: Klucel (hydroxypropylcellulose) (HPC) 102 % of control | [18] 100 % of control | [19] 110 % of control | [10] 104 % of control | dose: 200.0 mg/kg/injection, schedule: Q04DX003 (ip), vehicle: other 102 % of control

CC(C)(C)C(CCC(=O)O)CC(=O)O (configuration not stated)
inactive: [3] 90 % of control | [5] 89 % of control

O=C(Nc1cccc(C(F)(F)F)c1)Nc1ncccn1
inactive: [18] 90 % of control | [19] 94 % of control and 86 % of control | [20] 89 % of control

CN(C)Cc1ccc(Cl)cc1C(O)(c1ccccc1)c1ccccc1
inactive: [17] 101 % of control | [14] 104 % of control | [15] 93 % of control | [16] 93 % of control

CCCCS(=O)(=O)c1ccc(OC)c(NC(C)=O)c1
inactive: dose: 75.0 mg/kg/injection, schedule: Q04DX003 (ip), vehicle: Klucel (hydroxypropylcellulose) (HPC) 103 % of control | [11] 98 % of control | dose: 150.0 mg/kg/injection, schedule: Q04DX003 (ip), vehicle: Klucel (hydroxypropylcellulose) (HPC) 96 % of control | [12] 107 % of control | dose: 300.0 mg/kg/injection, schedule: Q04DX003 (ip), vehicle: Klucel (hydroxypropylcellulose) (HPC) 107 % of control | [13] 100 % of control

NC(=S)N/N=C\c1cccs1
inactive: dose: 100.0 mg/kg/injection, schedule: Q04DX002 (ip), vehicle: Klucel (hydroxypropylcellulose) (HPC) 96 % of control | dose: 200.0 mg/kg/injection, schedule: Q04DX002 (ip), vehicle: Klucel (hydroxypropylcellulose) (HPC) 107 % of control | dose: 400.0 mg/kg/injection, schedule: Q04DX002 (ip), vehicle: Klucel (hydroxypropylcellulose) (HPC) 102 % of control

COc1ccc(CC(Cc2ccc(OC)c(OC)c2)NC=O)cc1OC
inactive: [1] 95 % of control | [3] 97 % of control | [5] 100 % of control

Cc1c(Cl)cccc1NC(=O)c1cccc([N+](=O)[O-])c1
inactive: [19] 103 % of control | dose: 100.0 mg/kg/injection, schedule: Q04DX003 (ip), vehicle: Klucel (hydroxypropylcellulose) (HPC) 96 % of control | dose: 200.0 mg/kg/injection, schedule: Q01DX009 (ip), vehicle: Klucel (hydroxypropylcellulose) (HPC) 95 % of control | dose: 200.0 mg/kg/injection, schedule: Q04DX003 (ip), vehicle: Klucel (hydroxypropylcellulose) (HPC) 93 % of control | [20] 94 % of control | dose: 400.0 mg/kg/injection, schedule: Q04DX003 (ip), vehicle: Klucel (hydroxypropylcellulose) (HPC) 91 % of control

CC(=O)Nc1cc(Cl)ccc1SC1OC(COC(C)=O)C(OC(C)=O)C(OC(C)=O)C1OC(C)=O (configuration not stated)
inactive: [7] 93 % of control | [8] 95 % of control | [9] 87 % of control

COc1cccc(/C=N/N=C(N)N)c1OC
inactive: dose: 62.5 mg/kg/injection, schedule: Q01DX Z (ip), vehicle: saline 101 % of control

C=CC(C)C1C(C)C(Cl)CC(Cl)C1OC(=O)c1ccccc1 (configuration not stated)
inactive: [17] 100 % of control | [14] 112 % of control | [15] 94 % of control | [16] 96 % of control

ClP1(c2ccccc2)=NP(Cl)(c2ccccc2)=NP(Cl)(c2ccccc2)=NP(Cl)(c2ccccc2)=N1 (configuration not stated)
inactive: dose: 50.0 mg/kg/injection, schedule: Q01DX009 (ip), vehicle: saline with Tween-80 97 % of control | [1] 89 % of control

O=C(CNC(=O)OCc1ccccc1)Nc1ccc(S(=O)(=O)c2ccc(NC(=O)CNC(=O)OCc3ccccc3)cc2)cc1
inactive: dose: 50.0 mg/kg/injection, schedule: Q01DX001 (ip), vehicle: saline 96 % of control | [7] 96 % of control | [8] 96 % of control | [9] 90 % of control
